# Reference: US9212173B2, “Pyrazole aminopyrimidine derivatives as LRRK2 modulators” (Genentech, Inc., priority 2012, dated 2015)
# Biological target: LRRK2 (Homo sapiens (Human), UniProt Q5S007, G2019S)
# Assay: In Vitro LRRK2 Assay (LRRK2 Ki)
# Format: biochemical
# Description: In Vitro LRRK2 Lanthascreen Binding Assay
# This assay was used to determine a compound's potency in inhibiting activity of LRRK2 by determining, Kiapp, IC50, or percent inhibition values.
# Binding of the Alexa Fluor® “tracer” to a kinase is detected by addition of a Eu-labeled anti-GST antibody.
# 12 pt curve. […] Stamp 5 ul to assay plate. Final top test concentration 100 uM
# In Reaction Buffer, 5 ul of DMSO (3%) was added to total and blank wells and 5 ul of Eu-labeled anti-GST antibody (6 nM) was added to blank wells. Add 5 ul LRRK2 (30 nM)/Eu-labeled anti-GST antibody (6 nM) mix to compound and total wells.
# Incubate plates at room temperature for 1 hour on a plate shaker (gentle shaking). Read on Perkin Elmer EnVision reader HTRF protocol
# Subtract mean background values from all data points. Calculate % of control for each test value. Plot % of control vs Compound concentration. Calculate Ki Value (xlfit curve fitting-Morrison equation). Results expressed as a Ki in μM. Equation for Ki: Y=V0*(1−((x+Ki*(1+S/Km)+Et)/(2*Et)−(((x+Ki*(1+S/Km)+Et)^2−(4*Et*x))^0.5)/(2*Et)))
# This assay was used to determine a compound's potency in inhibiting activity of LRRK2 by determining, Kiapp, IC50, or percent inhibition values. In a polypropylene plate, LRRK2, fluorescently-labeled peptide substrate, ATP and test compound were incubated together. Using a LabChip 3000 (Caliper Life Sciences), after the reaction the substrate was separated by capillary electrophoresis into two populations: phosphorylated and unphosphorylated. The relative amounts of each were quantitated by fluorescence intensity. LRRK2 Ki was determined according to the equation: Y=V0*(1−((x+Ki*(1+S/Km)+Et)/(2*Et)−(((x+Ki*(1+S/Km)+Et)^2−(4*Et*x))^0.5)/(2*Et))).
# Ki values in Table 4 and elsewhere herein are shown in μM.
# For serial dilutions, 34.6 μl DMSO was added to columns 3-24.
# In Complete Reaction Buffer, substrate was diluted to 4 μM. Equal volumes of Complete Reaction Buffer and 4 μM substrate were combined to obtain the blank. Equal volumes of Complete Reaction Buffer and 4 μM substrate were combined and to the combined solution was added 2× final LRRK2 concentration.
# To a 50 μl polypropylene plate, 5 μl/well buffer/substrate was added by hand to Blank wells. A Biomek FX was used to start the kinase reaction (“PLK SAR 23 ATP”). The following were added to the appropriate wells:
# The plate was incubated for 2 hours in the dark. Biomek FX was used to stop the kinase reaction (“PLK Stop”), and 10 μl/well Stop solution was added to the Assay Plate. Results were read on the LabChip 3000.
# The LabChip 3000 was run using the job “LRRK2 IC50” with the following job settings: […]
# Sequence of LRRK2 (Q5S007 whole entry G2019S): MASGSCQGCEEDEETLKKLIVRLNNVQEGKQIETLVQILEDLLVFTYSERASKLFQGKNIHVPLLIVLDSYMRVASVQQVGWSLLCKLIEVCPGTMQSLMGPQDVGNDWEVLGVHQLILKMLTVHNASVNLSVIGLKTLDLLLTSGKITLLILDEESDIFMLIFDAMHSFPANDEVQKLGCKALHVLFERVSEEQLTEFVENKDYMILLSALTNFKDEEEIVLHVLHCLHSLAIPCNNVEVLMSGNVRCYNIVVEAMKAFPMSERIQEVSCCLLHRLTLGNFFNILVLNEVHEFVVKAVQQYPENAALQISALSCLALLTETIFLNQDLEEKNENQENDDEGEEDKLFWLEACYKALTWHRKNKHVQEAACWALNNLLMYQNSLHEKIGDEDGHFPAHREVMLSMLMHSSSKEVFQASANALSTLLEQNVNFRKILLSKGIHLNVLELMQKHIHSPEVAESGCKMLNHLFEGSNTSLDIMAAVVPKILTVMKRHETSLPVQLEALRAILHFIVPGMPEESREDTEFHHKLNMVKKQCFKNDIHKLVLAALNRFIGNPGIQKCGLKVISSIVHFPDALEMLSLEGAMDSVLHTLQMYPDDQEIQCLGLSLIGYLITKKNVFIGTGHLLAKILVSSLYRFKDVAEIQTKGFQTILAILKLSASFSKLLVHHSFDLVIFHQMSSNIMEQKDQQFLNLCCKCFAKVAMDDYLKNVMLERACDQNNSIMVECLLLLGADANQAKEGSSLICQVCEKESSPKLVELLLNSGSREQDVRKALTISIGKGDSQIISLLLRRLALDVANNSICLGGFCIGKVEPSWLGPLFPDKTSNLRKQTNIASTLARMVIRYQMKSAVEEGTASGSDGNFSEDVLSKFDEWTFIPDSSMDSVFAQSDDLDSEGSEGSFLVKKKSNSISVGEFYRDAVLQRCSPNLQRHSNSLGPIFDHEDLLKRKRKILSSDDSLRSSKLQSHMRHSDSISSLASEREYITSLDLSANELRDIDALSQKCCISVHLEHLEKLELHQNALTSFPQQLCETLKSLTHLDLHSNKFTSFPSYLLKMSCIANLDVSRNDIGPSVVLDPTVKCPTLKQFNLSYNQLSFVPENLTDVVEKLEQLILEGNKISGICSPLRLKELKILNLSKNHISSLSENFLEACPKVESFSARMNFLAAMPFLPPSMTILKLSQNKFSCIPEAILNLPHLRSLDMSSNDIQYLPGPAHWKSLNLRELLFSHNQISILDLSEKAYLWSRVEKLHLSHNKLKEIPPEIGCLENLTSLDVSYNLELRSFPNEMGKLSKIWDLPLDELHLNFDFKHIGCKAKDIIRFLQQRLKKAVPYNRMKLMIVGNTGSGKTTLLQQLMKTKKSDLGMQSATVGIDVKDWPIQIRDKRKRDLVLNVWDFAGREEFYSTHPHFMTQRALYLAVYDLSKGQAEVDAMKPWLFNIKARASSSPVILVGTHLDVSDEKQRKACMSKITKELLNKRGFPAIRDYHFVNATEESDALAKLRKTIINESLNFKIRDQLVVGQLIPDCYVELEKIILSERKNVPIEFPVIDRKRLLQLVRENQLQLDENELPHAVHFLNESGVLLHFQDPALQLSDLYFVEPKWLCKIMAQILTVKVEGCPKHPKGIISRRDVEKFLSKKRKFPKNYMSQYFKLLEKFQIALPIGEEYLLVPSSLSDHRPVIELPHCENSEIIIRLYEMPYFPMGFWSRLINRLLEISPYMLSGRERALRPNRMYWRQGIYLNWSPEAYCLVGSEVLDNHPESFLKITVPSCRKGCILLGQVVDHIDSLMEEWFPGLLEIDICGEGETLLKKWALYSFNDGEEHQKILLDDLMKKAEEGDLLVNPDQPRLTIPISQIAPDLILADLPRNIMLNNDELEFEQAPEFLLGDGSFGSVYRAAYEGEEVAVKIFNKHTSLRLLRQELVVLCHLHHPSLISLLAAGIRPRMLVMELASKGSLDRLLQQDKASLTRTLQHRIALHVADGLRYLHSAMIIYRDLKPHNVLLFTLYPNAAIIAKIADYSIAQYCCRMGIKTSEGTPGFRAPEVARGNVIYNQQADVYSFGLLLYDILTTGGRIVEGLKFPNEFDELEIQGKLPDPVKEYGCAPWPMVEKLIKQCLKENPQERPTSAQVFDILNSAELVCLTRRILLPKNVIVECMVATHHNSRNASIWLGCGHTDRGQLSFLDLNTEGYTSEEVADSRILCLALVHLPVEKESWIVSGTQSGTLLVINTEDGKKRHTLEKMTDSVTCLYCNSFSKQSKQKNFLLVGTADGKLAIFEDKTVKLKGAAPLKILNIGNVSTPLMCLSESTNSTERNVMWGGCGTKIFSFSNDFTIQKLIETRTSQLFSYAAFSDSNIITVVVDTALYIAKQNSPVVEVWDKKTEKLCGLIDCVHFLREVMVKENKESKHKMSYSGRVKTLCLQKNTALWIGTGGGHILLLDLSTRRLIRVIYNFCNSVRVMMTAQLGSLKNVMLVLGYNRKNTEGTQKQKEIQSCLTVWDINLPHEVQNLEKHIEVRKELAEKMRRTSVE
row,SMILES,Ki [nM]
1,"CNc1nc(Nc2cc(C(C)(C)C#N)nn2C)ncc1C(F)(F)F [Example 45, 2-methyl-2-(1-methyl-5-((4-(methylamino)-5-(trifluoromethyl)pyrimidin-2-yl)amino)-1H-pyrazol-3-yl)propanenitrile]",8.6
2,"Cc1nn(C(C)(C)C#N)cc1Nc1ncc(C#N)c(NC2CC2)n1 [Example 46, 2-((1-(2-cyanopropan-2-yl)-3-methyl-1H-pyrazol-4-yl)amino)-4-(cyclopropylamino)pyrimidine-5-carbonitrile]",3
3,"CCNc1nc(Nc2cc(C#N)nn2C)ncc1C(F)(F)F [Example 50, 5-((4-(ethylamino)-5-(trifluoromethyl)pyrimidin-2-yl)amino)-1-methyl-1H-pyrazole-3-carbonitrile]",24.5
